Experimental data as given in ChEMBL document CHEMBL1126979, “Studies toward structure-activity relationships of taxol: synthesis and cytotoxicity of taxol analogues with C-2 modified phenylisoserine side chains” (Bioorg Med Chem Lett, 1993).

The compounds below were run on HCT-116 (assay: Compound was evaluated by a cytotoxicity assay in HCT116 human colon carcinoma cell line).
Format: functional, cell-based

| SMILES | IC50 [nM] |
| --- | --- |
| CC(=O)O[C@H]1C(=O)[C@@]2(C)C([C@H](OC(=O)c3ccccc3)[C@]3(O)C[C@H](OC(=O)[C@H](F)[C@@H](NC(=O)c4ccccc4)c4ccccc4)C(C)=C1C3(C)C)[C@]1(OC(C)=O)CO[C@@H]1C[C@@H]2O (some centres undefined) | 475 |
| CO[C@@H](C(=O)O[C@H]1C[C@@]2(O)[C@@H](OC(=O)c3ccccc3)C3[C@](C)(C(=O)[C@H](OC(C)=O)C(=C1C)C2(C)C)[C@@H](O)C[C@H]1OC[C@@]31OC(C)=O)[C@@H](NC(=O)c1ccccc1)c1ccccc1 (some centres undefined) | 866 |
| CC(=O)O[C@H]1C(=O)[C@@]2(C)C([C@H](OC(=O)c3ccccc3)[C@]3(O)C[C@H](OC(=O)C[C@@H](NC(=O)c4ccccc4)c4ccccc4)C(C)=C1C3(C)C)[C@]1(OC(C)=O)CO[C@@H]1C[C@@H]2O (some centres undefined) | 297 |
| CC(=O)O[C@H]1C(=O)[C@@]2(C)[C@H]([C@H](OC(=O)c3ccccc3)[C@]3(O)C[C@H](OC(=O)[C@H](O)[C@@H](NC(=O)c4ccccc4)c4ccccc4)C(C)=C1C3(C)C)[C@]1(OC(C)=O)CO[C@@H]1C[C@@H]2O [PACLITAXEL] | 4 |
